Like-named read-outs stand apart in the source and are kept apart here.
Experiments:
[1] = biological target: T1, 5HT2 receptors (Rattus norvegicus, UniProt P14842); test: Antagonism of serotonin-induced contractions in the rat jugular vein (in vitro 5HT2 affinity); assay type: cell-based
T1 construct: Ring preparations of external rat jugular veins were used; tissue Harlan Sprague-Dawley, Inc., Cumberland, IN (animals); host or cells: external jugular vein rings of male Wistar rats
Experimental: Male Wistar rats (150-300 g) (Harlan Sprague-Dawley, Inc., Cumberland, IN) were killed by cervical dislocation. Ring preparations of external rat jugular veins were used as detailed in [(Cohen et al., J. Pharm. and Exper. Therapeutics 227, 327-332 (1983); Cohen et al., J. Pharm. and Exper. Therapeutics 235, 319-323 (1985).]
Tissues were mounted in organ baths containing 10 ml of modified Krebs' solution of the following composition (millimolar concentrations): NaCl, 118.2; KCl, 4.6; CaCl2.2H2 O, 1.6; KH2 PO4, 1.2; MgSO4, 1.2; dextrose, 10.0; and NaHCO3, 24.8. Tissue bath solutions were maintained at 37° C. and aerated with 95% O2 -5% CO2. Isometric contractions were recorded as changes in grams of force on a Beckman Dynograph with Statham UC-3 transducers and microscale accessory attachments. Tissues were allowed to equilibrate at an initial optimum resting force for 1 to 2 hr before exposure to test compound.
After control contractile responses to serotonin were obtained in the jugular vein, vessels were incubated with appropriate concentrations of the test compound for 1 hr. Responses to serotonin were then repeated in the presence of test compound.
Apparent test compound dissociation constants (KB) were determined for each concentration of test compound according to the following equation: [formula] where (B) is the concentration of the test compound and dose ratio is the ED50 of the serotonin in the presence of the test compound divided by the control ED50. […] The data were also analyzed according to the procedure of Arunlakshana and Schild, Brit. J. Pharmacol. 14, 48-58 (1959) as previously described [Cohen et al., supra (1983)].

[2] = tested on: vascular (5HT2) serotonin receptors; test: Inhibition of the pressor response to serotonin in pithed rats after intravenous test compound; assay type: in vivo, rat; conditions: for effect on pressor response to serotonin: pithed rats
Experimental: Serotonin receptor antagonism was evaluated in pithed Wistar normotensive rats (Charles River, Inc. Portage, MI; 240-374 g) since responses in the pithed preparation are primarily direct vascular effects. Rats were anesthetized with Metofane® (methoxyflurane), carotid arterial and femoral venous catheters were implanted, and the trachea was cannulated. Rats were pithed and ventilated with room air (Cohen et al., supra, 1983; Cohen et al., supra, 1985). An equilibration period of 15 min. was observed before control measurements and i.v. administration of test compound or vehicle. Increasing intravenous doses of serotonin were injected 15 min. after intravenous administration of test compound or vehicle. […] By intravenous administration, 1-isopropyldihydrolysergic acid was only approximately one-third as potent as the ester in blocking vascular 5HT2 receptors.

[3] = biological target: T1, 5HT2 receptors; conditions: cited from earlier work
[4] = tested on: vascular (5HT2) serotonin receptors; test: Duration of inhibition of vascular 5HT2 receptors in pithed rats (serotonin challenge 0.1 mg/kg i.v.); assay type: in vivo, rat; conditions: 0.3 mg/kg iv
[5] = tested on: vascular (5HT2) serotonin receptors; test: as above; assay type: in vivo, rat; conditions: for inhibition of vascular serotonin receptors: pithed rats; for Increase in mean blood pressure to serotonin: 0.1 mg/kg iv
Experimental: For these studies pithed rats were treated with vehicle or with the acid or the ester at a dose of 0.1 mg/kg, i.v. and challenged with serotonin (0.1 mg/kg i.v.) at various intervals for 2 hrs. after test compound or vehicle administration.

[6] = 120 minutes after test compound
[7] = 15 minutes after test compound, serotonin 0.1 mg/kg iv

T1 sequence (P14842 whole entry): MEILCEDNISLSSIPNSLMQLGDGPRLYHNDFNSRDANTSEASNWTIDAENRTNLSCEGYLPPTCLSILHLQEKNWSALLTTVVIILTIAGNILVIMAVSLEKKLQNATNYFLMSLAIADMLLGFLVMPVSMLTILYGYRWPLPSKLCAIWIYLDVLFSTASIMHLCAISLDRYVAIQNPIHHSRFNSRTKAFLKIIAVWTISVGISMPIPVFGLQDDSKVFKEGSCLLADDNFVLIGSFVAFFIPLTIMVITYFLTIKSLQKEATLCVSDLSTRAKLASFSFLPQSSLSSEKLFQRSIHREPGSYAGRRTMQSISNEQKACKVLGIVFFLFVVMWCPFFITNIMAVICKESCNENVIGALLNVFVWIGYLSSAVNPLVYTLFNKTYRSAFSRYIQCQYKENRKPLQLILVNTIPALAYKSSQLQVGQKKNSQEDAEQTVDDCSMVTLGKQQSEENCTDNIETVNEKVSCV

**Q.** Which results are given for `CC(C)n1cc2c3c(cccc31)C1C[C@@H](C(=O)O)CN(C)[C@@H]1C2` (some centres unmarked) [II, 1-isopropyldihydrolysergic acid]?
**A.** Kb ([1]; Schild plot abscissa intercept, rat jugular vein, read-out: pA2 (converted)): 151 nM; type of antagonism at 5HT2 receptors ([1]; jugular vein, Schild slope not different from negative unity): competitive antagonist; Kd ([1]; rat jugular vein): ~100 nM; affinity fold lower than the 4-methoxycyclohexyl ester ([1]; rat jugular vein): approximately 100 fold; Kb ([1]; rat jugular vein, serotonin contraction, apparent dissociation constant, n tissues in parentheses, read-out: -log KB ± SE(n) (converted)): 85.1 nM; ratio II/I (pA2) ([1]; ratio from pA2 of II and I): 170; ratio II/I (KB) ([1]; ratio of KB of II to I): 78; -Slope ([1]; slope of Schild plot, rat jugular vein): 1.29; potency as a 5HT2 antagonist in vivo ([2]; in vivo): relatively high potency; intravenous dose relative to the 4-methoxycyclohexyl ester to block vascular 5HT2 receptors ([2]; intravenous): three-fold higher; potency relative to the ester in blocking vascular 5HT2 receptors ([2]; intravenous administration): approximately one-third; effect on pressor response to serotonin ([2]; intravenous): dose-dependently inhibited; affinity in vitro for 5HT2 receptors (background statement) [3]: relatively low affinity; Increase in mean blood pressure to serotonin ([4]; 15 minutes after test compound): 3.2 mm Hg; Increase in mean blood pressure to serotonin ([4]; 30 minutes after test compound): 3.4 mm Hg; Increase in mean blood pressure to serotonin ([4]; 60 minutes after test compound): 4.2 mm Hg; Increase in mean blood pressure to serotonin ([4]; 90 minutes after test compound): 9.6 mm Hg; Increase in mean blood pressure to serotonin [4, 6]: 13.6 mm Hg; inhibition of vascular serotonin receptors ([5]; 0.1 mg/kg i.v.): marked block of vascular serotonin receptors; inhibition of serotonin vascular response 2 hrs. after administration ([5]; 0.1 mg/kg i.v., 2 hrs. after intravenous administration): marked inhibition of serotonin vascular response was still apparent; Increase in mean blood pressure to serotonin [5, 7]: 29.7 mm Hg; Increase in mean blood pressure to serotonin ([5]; 30 minutes after test compound): 27.8 mm Hg; Increase in mean blood pressure to serotonin ([5]; 60 minutes after test compound): 35.3 mm Hg; Increase in mean blood pressure to serotonin ([5]; 90 minutes after test compound): 41.7 mm Hg; Increase in mean blood pressure to serotonin [5, 6]: 48.1 mm Hg

**Q.** Which results are given for `COC1CCC(OC(=O)C2C[C@@H]3c4cccc5c4c(cn5C(C)C)C[C@H]3N(C)C2)CC1` (some centres unmarked) [I, reference compound]?
**A.** effect on pressor response to serotonin ([2]; intravenous): dose-dependently inhibited; inhibition of vascular serotonin receptors ([5]; 0.1 mg/kg i.v.): greater inhibition of vascular serotonin receptors than the acid; Increase in mean blood pressure to serotonin [5, 7]: 7.3 mm Hg; Increase in mean blood pressure to serotonin ([5]; 30 minutes after test compound): 12.7 mm Hg; Increase in mean blood pressure to serotonin ([5]; 60 minutes after test compound): 23.9 mm Hg; Increase in mean blood pressure to serotonin ([5]; 90 minutes after test compound): 34.6 mm Hg; Increase in mean blood pressure to serotonin [5, 6]: 34.6 mm Hg

From patent publication US4914107A, “Method for selectively blocking 5-HT2 receptors” (Eli Lilly and Company, priority 1989, dated 1990)
